Consider one molecule from patent publication US12011469B2, “Parenteral delivery device and methods of use” (Vireo Systems, Inc., priority 2017, dated 2024).

The subject of one experiment is Lactobacilli. The note with it: 60 mg hydrogen borate in well, LB-agar, overnight; Lactobacilli added one hour or 12 hours after hydrogen borate. On the procedure:
Lactobacillus capsular material (40 mg) was suspended in 1.0 milliliter of LB-broth and 25 microliters was spread on the surface of half of an LB-agar plate. For comparison, the other half of the plate spread with C. albicans. A hole was punched in the middle of the plate and 60 mg of hydrogen borate was added. The plates were incubated overnight and scored for growth and/or a zone of inhibition around the hydrogen borate well.
In some cases, only about a quarter of the LB-agar plate was spread with the L-capsular suspension in which case only 10 microliters was used.

Experiment [1] concerns co-cultures of C. albicans and Lactobacilli. The note with it: Lactobacilli added dropwise immediately after C. albicans was spread onto the plate. From the text: In some cases, the C. albicans was co-cultured with the Lactobacilli. For this inoculum, equal volumes of the two suspensions of organisms described earlier were mixed and used to spread on LB-agar plates for testing for any effect of the co-culture on the anti-yeast activity of hydrogen borate or any effect on Lactobacillus growth.

Experiment [2] relates to Candida albicans, ATTC number 10231. The experiment can be described thus: microbe, parasite or virus in culture. The note with it: read-out: zone of inhibition against the yeast, Candida albicans.
Protocol: Candida albicans, ATTC number 10231, was used as a test organism. Cultures of C. albicans were grown in a rotator overnight at room temperature in tubes of LB-broth. The cultures contained approximately 1×10^8 organisms per mL. The suspension was diluted 1:1000 in LB-broth and 50 microliters were spread on the surface of a LB-agar plate, i.e., approximately 5,000 organisms.

Regarding `OB(O)O` [hydrogen borate], the “effect on the growth of Lactobacilli” value with Lactobacilli is “did not have an effect”. Besides, the “effect of co-culture on the anti-yeast activity of hydrogen borate” value in experiment [1] is listed as “did not affect the activity”. Moreover, in experiment [2], the zone of inhibition at 60000 µg/disc was 45 mm.
